Counter-ions that a name gives are not always drawn.
Molecular target: T1, human EP1 receptor (Homo sapiens, UniProt P34995)
T1 construct: expressed in transfected cells; host or cells: CHO-K1
T1 sequence (P34995 1-402): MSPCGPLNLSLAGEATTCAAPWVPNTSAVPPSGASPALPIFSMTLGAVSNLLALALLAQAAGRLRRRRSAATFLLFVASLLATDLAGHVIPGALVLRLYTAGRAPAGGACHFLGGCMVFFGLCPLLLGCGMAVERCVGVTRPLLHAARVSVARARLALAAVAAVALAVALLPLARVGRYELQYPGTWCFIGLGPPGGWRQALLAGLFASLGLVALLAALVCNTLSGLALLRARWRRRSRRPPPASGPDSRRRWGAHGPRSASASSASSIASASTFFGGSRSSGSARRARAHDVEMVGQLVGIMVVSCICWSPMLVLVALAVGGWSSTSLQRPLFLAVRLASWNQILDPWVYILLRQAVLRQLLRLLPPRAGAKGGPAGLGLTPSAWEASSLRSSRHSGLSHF
Test: human EP1 calcium mobilisation assay
Type: cell-based
Details: negative logarithm10 of the antagonist dissociation constant; CHO-K1 cells, PGE2; free bases or sodium salts; averages of a number of experiments; read-out: functional pKi value (converted)
Protocol: Briefly, the antagonist properties of compounds are assessed by their ability to inhibit the mobilisation of intracellular calcium ([Ca^2+]i) in response to activation of EP1 or EP3 receptors by the natural agonist hormone prostaglandin E2 (PGE2). Increasing concentrations of antagonist reduce the amount of calcium that a given concentration of PGE2 can mobilise. The net effect is to displace the PGE2 concentration-effect curve to higher concentrations of PGE2. The amount of calcium produced is assessed using a calcium-sensitive fluorescent dye such as Fluo-4, AM and a suitable instrument such as a Fluorimetric Imaging Plate Reader (FLIPR). Increasing amounts of [Ca^2+]i produced by receptor activation increase the amount of fluorescence produced by the dye and give rise to an increasing signal. The signal may be detected using the FLIPR instrument and the data generated may be analysed with suitable curve-fitting software.
The human EP1 or EP3 calcium mobilisation assay (hereafter referred to as ‘the calcium assay’) utilises Chinese hamster ovary-K1 (CHO-K1) cells into which a stable (pCIN; BioTechniques 20 (1996): 102-110) vector containing either EP1 or EP3 cDNA has previously been transfected. Cells are cultured in suitable flasks containing culture medium such as DMEM:F-12 supplemented with 10% v/v foetal calf serum, 2 mM L-glutamine, 0.25 mg/ml geneticin, 100 μM flurbiprofen and 10 μg/ml puromycin.
For assay, cells are harvested using a proprietary reagent that dislodges cells such as Versene. Cells are re-suspended in a suitable quantity of fresh culture media for introduction into a 384-well plate. Following incubation for 24 hours at 37° C. the culture media is replaced with a medium containing Fluo-4 and the detergent pluronic acid, and a further incubation takes place. Concentrations of compounds are then added to the plate in order to construct concentration-effect curves. This may be performed on the FLIPR in order to assess the agonist properties of the compounds. Concentrations of PGE2 are then added to the plate in order to assess the antagonist properties of the compounds.
The data so generated may be analysed by means of a computerised curve-fitting routine. The concentration of compound that elicits a half-maximal inhibition of the calcium mobilisation induced by PGE2 (plC50) may then be estimated.

Cc1cc(NC(=O)Cc2ccccc2)nn1Cc1cc(Cl)ccc1OCc1c(F)cc(F)cc1F [Example 127, N-{1-[(5-Chloro-2-{[(2,4,6-trifluorophenyl)methyl]oxy}phenyl)methyl]-5-methyl-1H-pyrazol-3-yl}-2-phenylacetamide]
Ki: > 1 µM

Cc1cc(NC(=O)c2ccc(C#N)cc2)nn1Cc1cc(Cl)ccc1OCc1ccccc1 [Example 142, N-[1-({5-Chloro-2-[(phenylmethyl)oxy]phenyl}methyl)-5-methyl-1H-pyrazol-3-yl]-4-cyanobenzamide]
Ki: > 1 µM

Cc1cc(-c2nc3cc(F)c(F)cc3[nH]2)nn1Cc1cc(Cl)ccc1OCC(C)C [Example 376, 2-[1-({5-Chloro-2-[(2-methylpropyl)oxy]phenyl}methyl)-5-methyl-1H-pyrazol-3-yl]-5,6-difluoro-1H-benzimidazole]
Ki: > 1 µM

Cc1cc(OC(=O)NC2CCCCC2)nn1Cc1cc(Cl)ccc1OCc1ccccc1 [Example 43, 1-({5-Chloro-2-[(phenylmethyl)oxy]phenyl}methyl)-5-methyl-1H-pyrazol-3-yl cyclohexylcarbamate]
Ki: > 1 µM

Cc1cc(C(=O)NCc2ccccn2)nn1Cc1cc(Cl)ccc1OCc1ccc(Cl)cc1F [Example 340, 1-[(5-Chloro-2-{[(4-chloro-2-fluorophenyl)methyl]oxy}phe-nyl)methyl]-5-methyl-N-(2-pyridinylmethyl)-1H-pyrazole-3-carboxamide]
Ki: > 1 µM

Cc1cc(NC(=O)c2ccc3c(c2)CCN(C(=O)OC(C)(C)C)CC3)nn1Cc1cc(Cl)ccc1OCC(C)C [Example 97, 1,1-Dimethylethyl 7-({[1-({5-chloro-2-[(2-methylpropyl)oxy]phenyl}methyl)-5-methyl-1H-pyrazol-3-yl]amino}carbonyl)-1,2,4,5-tetrahydro-3H-3-benzazepine-3-carboxylate]
Ki: > 1 µM

Cc1cc(-c2cnc(-c3cnccn3)[nH]2)nn1Cc1cc(Cl)ccc1OCc1ccccc1 [Example 482, 2-{4-[1-({5-chloro-2-[(phenylmethyl)oxy]phenyl}methyl)-5-methyl-1H-pyrazol-3-yl]-1H-imidazol-2-yl}pyrazine]
Ki: > 1 µM

Cc1cc(NC(=O)c2ccco2)nn1Cc1cc(Cl)ccc1OCc1ccccc1 [Example 140, N-[1-({5-Chloro-2-[(phenylmethyl)oxy]phenyl}methyl)-5-methyl-1H-pyrazol-3-yl]-2-furancarboxamide]
Ki: > 1 µM

Cc1cc(C(=O)NCc2cccnc2)nn1Cc1cc(Cl)ccc1OCc1ccccc1 [Example 294, 1-({5-Chloro-2-[(phenylmethyl)oxy]phenyl}methyl)-5-methyl-N-(3-pyridinylmethyl)-1H-pyrazole-3-carboxamide]
Ki: > 1 µM

Cc1cc(NC(=O)c2ccccn2)nn1Cc1cc(Cl)ccc1OCc1ccccc1 [Example 139, N-[1-({5-Chloro-2-[(phenylmethyl)oxy]phenyl}methyl)-5-methyl-1H-pyrazol-3-yl]-2-pyridinecarboxamide]
Ki: > 1 µM

Cc1cc(NC(=O)Cc2ccccc2)nn1Cc1cc(Cl)ccc1OCc1ccc(Cl)cc1Cl [Example 125, N-{1-[(5-Chloro-2-{[(2,4-dichlorophenyl)methyl]oxy}phenyl)methyl]-5-methyl-1H-pyrazol-3-yl}-2-phenylacetamide]
Ki: > 1 µM

Cc1cc(NC(=O)Cc2ccccc2)nn1Cc1cc(Cl)ccc1OCc1ccc(F)cc1F [Example 122, N-{1-[(5-Chloro-2-{[(2,4-difluorophenyl)methyl]oxy}phenyl)methyl]-5-methyl-1H-pyrazol-3-yl}-2-phenylacetamide]
Ki: > 1 µM

COC(=O)Nc1cc(C)n(Cc2cc(Cl)ccc2OCc2ccccc2)n1 [Example 65, Methyl[1-({5-chloro-2-[(phenylmethyl)oxy]phenyl}methyl)-5-methyl-1H-pyrazol-3-yl]carbamate]
Ki: > 1 µM

Cc1cc(C(=O)Nc2ccccc2C#N)nn1Cc1cc(Cl)ccc1OCc1ccccc1 [Example 304, 1-({5-Chloro-2-[(phenylmethyl)oxy]phenyl}methyl)-N-(2-cyanophenyl)-5-methyl-1H-pyrazole-3-carboxamide]
Ki: > 1 µM

Cc1cc(C(=O)Nc2ccccc2)nn1Cc1cc(Cl)ccc1OCc1ccccc1 [Example 291, 1-({5-Chloro-2-[(phenylmethyl)oxy]phenyl}methyl)-5-methyl-N-phenyl-1H-pyrazol-3-carboxamide]
Ki: > 1 µM

Cc1cc(NC(=O)Cc2ccccc2)nn1Cc1cc(Cl)ccc1OCc1ccc(F)c(F)c1 [Example 128, N-{1-[(5-Chloro-2-{[(3,4-difluorophenyl)methyl]oxy}phenyl)methyl]-5-methyl-1H-pyrazol-3-yl}-2-phenylacetamide]
Ki: > 1 µM

Cc1cc(C(=O)NCc2ccccc2)nn1Cc1cc(Cl)ccc1OCc1ccccc1 [Example 292, 1-({5-Chloro-2-[(phenylmethyl)oxy]phenyl}methyl)-5-methyl-N-(phenylmethyl)-1H-pyrazol-3-carboxamide]
Ki: > 1 µM

Cc1cc(NC(=O)c2cccnc2)nn1Cc1cc(Cl)ccc1OCc1ccccc1 [Example 145, N-[1-({5-Chloro-2-[(phenylmethyl)oxy]phenyl}methyl)-5-methyl-1H-pyrazol-3-yl]-3-pyridinecarboxamide]
Ki: > 1 µM

Cc1cc(-c2cnc(-c3ccncc3)[nH]2)nn1Cc1cc(Cl)ccc1OCc1ccccc1 [Example 483, 4-{4-[1-({5-Chloro-2-[(phenylmethyl)oxy]phenyl}methyl)-5-methyl-1H-pyrazol-3-yl]-1H-imidazol-2-yl}pyridine hydrochloride]
Ki: > 1 µM

CC(=O)Nc1cc(C)n(Cc2cc(Cl)ccc2OCC(C)C)n1 [Example 103, N-[1-({5-Chloro-2-[(2-methylpropyl)oxy]phenyl}methyl)-5-methyl-1H-pyrazol-3-yl]acetamide]
Ki: > 1 µM

Cc1cc(C(=O)NC(C)C)nn1Cc1cc(Cl)ccc1OCc1ccccc1 [Example 290, 1-({5-Chloro-2-[(phenylmethyl)oxy]phenyl}methyl)-5-methyl-N-(1-methylethyl)-1H-pyrazole-3-carboxamide]
Ki: > 1 µM

Cc1cc(N2CCN(Cc3ccc(Cl)cc3)CC2=O)nn1Cc1cc(Cl)ccc1OCC1CCCCO1 (centres unmarked) [Example 284, 4-[(4-Chlorophenyl)methyl]-1-[1-({5-chloro-2-[(tetrahydro-2H-pyran-2-ylmethyl)oxy]phenyl}methyl)-5-methyl-1H-pyrazol-3-yl]-2-piperazinone]
Ki: > 1 µM

Cc1cc(NC(=O)Cc2cccnc2)nn1Cc1cc(Cl)ccc1OCc1ccccc1 [Example 148, N-[1-({5-Chloro-2-[(phenylmethyl)oxy]phenyl}methyl)-5-methyl-1H-pyrazol-3-yl]-2-(3-pyridinyl)-acetamide]
Ki: > 1 µM

Cc1cc(C(=O)Nc2ccccc2Cl)nn1Cc1cc(Cl)ccc1OCc1ccccc1 [Example 300, N-(2-Chlorophenyl)-1-({5-chloro-2-[(phenylmethyl)oxy]phenyl}methyl)-5-methyl-1H-pyrazole-3-carboxamide]
Ki: > 1 µM

CC(=O)Nc1cc(C)n(Cc2cc(Cl)ccc2OCc2ccccc2)n1 [Example 104, N-[1-({5-Chloro-2-[(phenylmethyl)oxy]phenyl}methyl)-5-methyl-1H-pyrazol-3-yl]acetamide]
Ki: > 1 µM

Cc1cc(NC(=O)c2cnccn2)nn1Cc1cc(Cl)ccc1OCc1ccccc1 [Example 144, N-[1-({5-Chloro-2-[(phenylmethyl)oxy]phenyl}methyl)-5-methyl-1H-pyrazol-3-yl]-2-pyrazinecarboxamide]
Ki: > 1 µM

Reference: patent US20090239845A1, “PYRAZOLE COMPOUNDS AS PROSTAGLANDIN RECEPTORS LIGANDS” (priority 2005, published 2009)
